{
  "source": "patent US20180008688A1",
  "about": "“METHOD AND COMPOSITIONS FOR ENHANCING IMMUNOTHERAPEUTIC TREATMENT OF A CANCER” (Augusta University Research Institute, Inc., priority 2016, published 2018)",
  "key": {"[1]": {"system": "B16F10, EL4, LLC, Tg(Grm1)Epv, MMTV-PyMT", "assay_type": "in vivo, mouse", "details": "every tumor tested", "text": "Conversely, the effect of chemotherapy could be fully replaced by adoptive transfer of exogenous tumor-specific CD8^+ T cells (e.g., pmel-1 cells) activated with vaccine."}, "B16F10 tumors [2]": {"system": "B16F10 tumors", "assay_type": "in vivo", "details": "for response of B16 melanoma tumors to chemotherapy alone: single moderate dose", "experimental": "In vivo tumor studies: The B16F10 and E.G7 (EL4-OVA) cell lines were obtained from ATCC. B16-OVA (B16F10 transfected with full-length chicken ovalbumin) clone MO4 was according to Falo et al. ((1995) Nat. Med. 1: 649-653). B16F10 cells expressing EGFP protein (B16-GFP cells) were derived using lentiviral transfection. Tumor implantation was performed as described (Sharma et al., (2007) J. Clin. Invest. 117: 2570-2582), using 1×10^5 cells for B16F10 and 1×10^6 cells for other cell lines (large inocula were used to ensure rapid tumor engraftment and immune suppression). […] Tumor volume was calculated from orthogonal diameters using the formula V=L×W^2×π/6. Mice received approved euthanasia when tumors reached a size of 300 mm^2 (product of orthogonal diameters); death was never used a planned endpoint in any study.\n(§1) Tumor implantation was performed as described (Sharma et al., (2007) J. Clin. Invest. 117: 2570-2582). VO-OHpic was given at 10 mg/kg/day i.p., in 10% DMSO/PBS. Cyclophosphamide was given at 150 mg/kg i.p×1 dose; and oxaliplatin at 5 mg/kg i.p×1 dose. Nutlin-3a was administered daily at 10 mg/kg/day i.p. For checkpoint blockade, mice received anti-CTLA-4 plus a cocktail of antibodies against the PD-1 pathway. Vaccines and T cell adoptive transfer studies were performed as described (Sharma et al., (2015) Sci. Advances. 1: e1500845).\nVO-OHpic/CTX, nutlin-3a, oxaliplatin and immunotherapy regimens: The vanadate compound VO-OHpic (Mak et al., (2010) J. Chem. Biol. 3: 157-163) inhibits PTEN activity, and this drug was used to destabilize PTEN+Tregs during chemotherapy. Like all of the available PTEN-inhibitors, VO-OHpic can also affect other phosphatases (Spinelli et al., (2015) Adv. Biol. Regul. 57: 102-111).\nVO-OHpic was given at 10 mg/kg/day i.p., in 10% DMSO/PBS. Cyclophosphamide was given at 150 mg/kg i.p×1 dose. Oxaliplatin was given at 5 mg/kg i.p×1 dose. […] For checkpoint blockade, mice received anti-CTLA-4 (clone 9D9, BioXcell) plus a cocktail of antibodies against the PD-1 pathway: anti-PD-L2, clone TY25 (Yamazaki et al., (2002) J. Immunol. 169: 5538-5545); anti-PD-1, clone J43 (Agata et al., (1996) Int. Immunol. 8: 765-772); and anti-PD-L1, clone MIH7 (Tsushima et al., (2003) Eur. J. Immunol. 33: 2773-2782). A cocktail was used in order to block the PD-1 pathway as completely as possible and thus minimize any peculiarities of a single blocking antibody."}, "E.G7 tumors [3]": {"system": "E.G7 tumors", "test": "E.G7/oxaliplatin model in LysMcre/p53-KO hosts with or without nutlin-3a", "assay_type": "in vivo, mouse", "details": "LysMcre/p53 knockout mice", "text": "To test whether the relevant target of nutlin in tumors was specifically the p53 expression in myeloid dendritic cells, the E.G7/oxaliplatin model in LysMcre/p53-KO hosts was used. If mice lacked the relevant p53 in tumor-associated myeloid cells, then LysMcre/p53-KO mice should lose all anti-tumor effect of nutlin. For these studies, mice received congenically-marked OT-I cells to monitor whether T cells were still rescued by IL-12 in tumors.\n(§2) Mice with a nuclear-localizing Cre-recombinase knock-in replacing one copy of the Lyz2 gene (Clausen et al., (1999) Transgenic Res. 8: 265-277) (strain 004781, Jax) were crossed as heterozygotes with homozygous p53^flox/flox mice (Marino et al., (2000) Genes Dev. 14: 994-1004) (strain 008462, Jax).\nas §1"}, "E.G7 tumors [4]": {"system": "E.G7 tumors", "test": "RIP-mOVA mice with E.G7 tumors treated with oxaliplatin with or without nutlin", "assay_type": "in vivo", "details": "oxaliplatin in the absence of nutlin", "experimental": "A classical model of ICD was first tested in which EL4-OVA lymphoma tumors (clone E.G7) are treated with oxaliplatin chemotherapy (Ghiringhelli et al., (2009) Nat. Med. 15: 1170-1178). E.G7 bears the same model antigen as B16-OVA (described with the RIP-mOVA model, above), so it was possible to test the effects of nutlin plus oxaliplatin in the RIP-mOVA model."}, "T cells": {"system": "T cells", "test": "Purified T cells activated with anti-CD3/CD28 with nutlin, IL-12, MG-132", "assay_type": "cell-based, mouse", "details": "MG-132 in the presence of both nutlin and IL-12", "text": "Regulation of p53 is complex, and it can be targeted by multiple pathways besides MDM2 (Chao C. C. (2015) Clin. Chim. Acta 438: 139-147). If IL-12 is rescuing T cells from nutlin, one possibility is that IL-12 might activate an alternative pathway of p53 degradation, not dependent on MDM2. To test this, purified T cells were activated (without any antigen-presenting cells or other cells) using anti-CD3/CD28 antibodies. T cells were activated in the presence or absence of nutlin with or without addition of recombinant IL-12.\nFinally, to test the hypothesis that IL-12 targeted p53 for proteolytic degradation via an alternated pathway, proteasomal function was inhibited using MG-132. T cells were activated using immobilized CD3/CD28 as above. […] CFSE proliferation tracked inversely with p53 levels. […] While MG-132 affects many intracellular pathways besides p53, these findings support the basic hypothesis that IL-12 bypasses nutlin by targeting p53 for degradation via an alternative route."}, "B16F10 tumors [5]": {"system": "B16F10 tumors", "test": "Tumors in knockout hosts treated with VO-OHpic or CTX/VO-OHpic", "assay_type": "in vivo, mouse", "details": "VO-OHpic alone, LysMcre/p53-KO mice", "text": "as §2\nIn vivo tumor studies: The B16F10 and E.G7 (EL4-OVA) cell lines were obtained from ATCC. B16-OVA (B16F10 transfected with full-length chicken ovalbumin) clone MO4 was according to Falo et al. ((1995) Nat. Med. 1: 649-653). B16F10 cells expressing EGFP protein (B16-GFP cells) were derived using lentiviral transfection. Tumor implantation was performed as described (Sharma et al., (2007) J. Clin. Invest. 117: 2570-2582), using 1×10^5 cells for B16F10 and 1×10^6 cells for other cell lines (large inocula were used to ensure rapid tumor engraftment and immune suppression). Tumors were implanted bilaterally in each mouse as a control for reproducible implantation technique; replicate tumor diameters in a single mouse were typically within ±15%. Tumor volume was calculated from orthogonal diameters using the formula V=L×W^2×π/6. Mice received approved euthanasia when tumors reached a size of 300 mm^2 (product of orthogonal diameters); death was never used a planned endpoint in any study.\nTumor implantation was performed as described (Sharma et al., (2007) J. Clin. Invest. 117: 2570-2582). […]"}, "B16F10 tumors [6]": {"system": "B16F10 tumors", "details": "VO-OHpic combined with chemotherapy; Sharma et al. 2015; cited from earlier work"}, "p53": {"system": "p53", "test": "Tumors in PTEN^Treg-KO mice treated in vivo with pifithrin", "set-up": "species or system mouse"}, "Ly6c+CD11c^NEG cells": {"system": "Ly6c+CD11c^NEG cells", "test": "Mouse myeloid-cell maturation co-cultures", "assay_type": "cell-based", "details": "exposed to signals from activated T cells", "experimental": "Mouse myeloid-cell maturation cultures: Maturation co-cultures were performed in V-bottom wells (Nunc 249952 V96), using RPMI-1640 medium with 10% fetal bovine serum, but no added cytokines. The preferred source of myeloid cells was TDLN or spleen from mice bearing B16F10 or E.G7 tumors. Rapid isolation of cells was important for viability, so cells were disaggregated by passing once through a 40 μm mesh, then stained briefly on ice and FACS-sorted into ice-cold medium using low-shear fluidics and a large nozzle (Mo-Flo cell sorter). […] myeloid cells were enriched by sorting for Ly6c^+ that were CD11c^NEG B220^NEG (to exclude dendritic cells and B cells). For some experiments, myeloid cells were sub-fractionated using sort dates based on expression of Gr-1 and CD11b.\nSorted Ly6c+ myeloid cells were added to co-cultures as previously described (Sharma et al., (2013) Immunity 38: 998-1012). As an inflammatory stimulus for differentiation, CD8^+ effector cells (5×10^4) were FACS-sorted from spleens of either OT-I or pmel-1 mice (both performed equivalently), and added to co-cultures along with 100 nM cognate peptide (SIINFEKL (SEQ ID NO: 1) or hgp100). […]"}, "CD33+ cells": {"system": "CD33+ cells", "test": "Human myeloid cell cultures matured with recombinant IFNγ", "assay_type": "cell-based", "details": "cultured in GM-CSF+IL-6, then IFNγ; FIG. 5A", "text": "(Minneapolis, MN) and isolated by centrifugation over Ficoll-Paque PLUS (GE Healthcare), followed by enrichment for myeloid cells using CD33^+ micro-beads (Miltenyi MACs). Alternatively, myelomonocytic cells were enriched by counter-flow elutriation as previously described (Munn et al., (2002) Science 297: 1867-1870; Munn et al., (2004) J. lmmunol. 172: 4100-4110). Immature myeloid cells were then generated by culture for 7 days as previously described (Koehn et al., (2015) Blood 126: 1621-1628; Lechner et al., (2010) J. lmmunol. 185, 2273-2284). Briefly, PBMC were cultured in RPMI-1640 medium with 10% FBS, 1% Pen/Strep, 1% GlutaMax as well as recombinant human GM-CSF (10 ng/ml, R&D Systems)+IL-6 (10 ng/ml, R&D Systems). Culture growth media was refreshed on days 3 and 6; on day 7, cells were washed and returned to culture in medium without GM-CSF/IL-6. Replicate cultures were then treated for 2 days with or without recombinant human IFNγ (30ng/ml, R&D Systems) to induce maturation, and with or without p53 inhibitor pifithrin-α (10 uM, Sigma). After 48 h, cultures were harvested and stained for CD11b, CD33, phospho-p53-Ser15, IRF5 and BDCA3 (CD141).\nHuman peripheral-blood mononuclear cells were enriched for monocytic cells, then cultured in GM-CSF+IL-6 as described by Koehn et al. ((2015) Blood 126: 1621-1628). […]"}, "[7]": {"details": "VO-OHpic alone, WT control mice"}},
  "note": "Entries after “also recorded” stand apart in the source; their conditions may differ. Read-outs that look alike come from different tables or passages of the source. Peptide text beside a SMILES is read from it. * marks the point of attachment. Cbz = O=C(OCc1ccccc1)*",
  "data": [
    {"compound": "Nc1ccn([C@@H]2O[C@H](CO)[C@@H](O)C2(F)F)c(=O)n1", "note": "[gemcytabine]", "values": [
      {"measurement": "interaction of chemotherapy drug with PTEN-inhibitor", "setting": "[1]", "value": "synergy"},
      {"measurement": "response of B16 melanoma tumors to chemotherapy alone", "setting": "B16F10 tumors [2]", "value": "highly resistant"}
    ]},
    {"compound": "O=C1[O][Pt]2([NH][C@@H]3CCCC[C@H]3[NH]2)[O]C1=O", "note": "[oxaliplatin]", "values": [
      {"measurement": "response to oxaliplatin chemotherapy", "setting": "E.G7 tumors [3]", "value": "unable to respond; also recorded: lost all response to treatment"},
      {"measurement": "anti-tumor effect", "setting": "E.G7 tumors [4]", "value": "transient regression"},
      {"measurement": "autoimmune diabetes", "setting": "E.G7 tumors [4]", "value": "rapidly died from progressive autoimmune diabetes"}
    ]},
    {"compound": "CC(C)C[C@@H](C=O)NC(=O)[C@H](CC(C)C)NC(=O)[C@H](CC(C)C)NC(=O)OCc1ccccc1", "note": "[MG-132] (Cbz-Leu-Leu-Leu-aldehyde)", "values": [
      {"measurement": "T cell proliferation", "setting": "T cells", "value": "inhibited proliferation"},
      {"measurement": "p53 levels in activated T cells", "setting": "T cells", "value": "progressively increased p53"}
    ]},
    {"compound": "O=P1(N(CCCl)CCCl)NCCCO1", "note": "(stereo not shown) [cyclophosphamide]", "values": [
      {"measurement": "interaction of chemotherapy drug with PTEN-inhibitor", "setting": "[1]", "value": "synergy"},
      {"measurement": "response of B16 melanoma tumors to chemotherapy alone", "setting": "B16F10 tumors [2]", "value": "highly resistant"}
    ]},
    {"compound": "VO-OHpic", "values": [
      {"measurement": "tumor growth", "setting": "B16F10 tumors [5]", "value": "not suppressed"},
      {"measurement": "destabilization of PTEN+Tregs in tumors", "setting": "B16F10 tumors [6]", "value": "rapid and essentially complete destabilization"},
      {"measurement": "anti-tumor effect", "setting": "B16F10 tumors [2]; PTEN-inhibitor by itself, large established tumors, FIG. 12", "value": "no effect"},
      {"measurement": "Ly6c+CD103+ dendritic cells", "setting": "B16F10 tumors [2]; [7]", "value": "allowed emergence"},
      {"measurement": "tumor growth", "setting": "B16F10 tumors [2]; [7]", "value": "suppressed tumor growth"},
      {"measurement": "enhancement of tumor growth by PTEN-inhibitor", "setting": "B16F10 tumors [2]; systems of the disclosure", "value": "does not enhance the growth of tumors"}
    ]},
    {"compound": "pifithrin", "values": [
      {"measurement": "emergence of Ly6c+CD103+ dendritic cell subset", "setting": "p53", "value": "selectively prevented the emergence"},
      {"measurement": "immune surveillance of tumors", "setting": "p53", "value": "allowed tumors to escape immune surveillance"},
      {"measurement": "differentiation of Ly6c+ MDSCs into Ly6c+CD103+ dendritic cells", "setting": "Ly6c+CD11c^NEG cells", "value": "inhibited"}
    ]},
    {"compound": "recombinant IFNγ: recombinant human IFNγ (R&D Systems) used to induce maturation", "values": [
      {"measurement": "maturation of CD33+ cells", "setting": "CD33+ cells", "value": "rapidly matured into activated cells expressing CD83, CD141, XCR1 and Batf3"}
    ]}
  ]
}
